Positions count from the first letter of the chain named.
How the values were obtained:
Assay in all cases: two-electrode voltage clamp, Xenopus oocytes
rP2X4 receptor [1] = biological target: T1, rP2X4 receptor (Rattus norvegicus, UniProt P51577, Y378A); format: cell-based
T1 construct: gene P2rx4; homotrimer; cRNA expressed in Xenopus laevis oocytes
T1 sequence (P51577 1-388 Y378A): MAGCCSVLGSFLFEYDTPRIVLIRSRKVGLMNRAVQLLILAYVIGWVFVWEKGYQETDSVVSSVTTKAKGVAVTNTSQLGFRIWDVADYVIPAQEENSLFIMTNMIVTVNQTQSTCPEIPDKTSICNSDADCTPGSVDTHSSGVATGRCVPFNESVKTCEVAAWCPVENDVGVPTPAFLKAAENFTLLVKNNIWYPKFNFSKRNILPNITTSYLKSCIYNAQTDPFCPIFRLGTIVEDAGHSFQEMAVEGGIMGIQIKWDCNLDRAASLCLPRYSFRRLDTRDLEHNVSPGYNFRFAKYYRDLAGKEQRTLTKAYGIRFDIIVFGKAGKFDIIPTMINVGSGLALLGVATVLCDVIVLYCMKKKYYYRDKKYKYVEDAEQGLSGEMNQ
Description: two-electrode voltage clamp, Xenopus oocytes on rP2X4 receptor

hP2X1 receptor = biological target: T2, hP2X1 receptor (Homo sapiens, UniProt P51575); format: cell-based
T2 construct: gene P2RX1; full-length cDNA cloned from bladder; homotrimer; cRNA expressed in Xenopus laevis oocytes
T2 sequence (P51575 1-399): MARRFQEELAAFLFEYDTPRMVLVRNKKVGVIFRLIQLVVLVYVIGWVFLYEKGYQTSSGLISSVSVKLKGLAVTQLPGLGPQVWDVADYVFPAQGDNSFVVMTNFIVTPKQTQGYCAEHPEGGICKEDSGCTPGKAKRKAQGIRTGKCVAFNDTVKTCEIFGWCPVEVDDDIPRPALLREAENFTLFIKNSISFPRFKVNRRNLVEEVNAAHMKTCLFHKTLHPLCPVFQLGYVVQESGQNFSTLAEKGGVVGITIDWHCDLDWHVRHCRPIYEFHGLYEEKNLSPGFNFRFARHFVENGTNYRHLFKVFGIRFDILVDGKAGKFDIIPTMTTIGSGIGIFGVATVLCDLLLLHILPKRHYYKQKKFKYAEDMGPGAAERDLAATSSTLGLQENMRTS
Description: two-electrode voltage clamp, Xenopus oocytes on hP2X1 receptor

X1-AX4 = test system: T3, X1-AX4; format: cell-based, Homo sapiens; Rattus norvegicus; conditions: ND96 with Ba2+, -60 mV
T3 construct: gene P2RX1; hP2X1 with residues 63-132 replaced by the corresponding rP2X4 segment (63-133); Xenopus oocytes
Description: two-electrode voltage clamp, Xenopus oocytes on X1-AX4

X1-DX4 = test system: T4, X1-DX4; format: cell-based, Homo sapiens; Rattus norvegicus; conditions: ND96 with Ba2+, -60 mV
T4 construct: gene P2RX1; hP2X1 with residues 262-330 (hP2X1 numbering) replaced by the corresponding rP2X4 segment; Xenopus oocytes
Description: two-electrode voltage clamp, Xenopus oocytes on X1-DX4

X1-CX4 = test system: T5, X1-CX4; format: cell-based, Homo sapiens; Rattus norvegicus; conditions: ND96 with Ba2+, -60 mV
T5 construct: gene P2RX1; hP2X1 with residues 185-261 (hP2X1 numbering) replaced by the corresponding rP2X4 segment; Xenopus oocytes
Description: two-electrode voltage clamp, Xenopus oocytes on X1-CX4

X1-BX4 [2] = test system: T6, X1-BX4; format: cell-based, Homo sapiens; Rattus norvegicus; conditions: ND96 with Ba2+, -60 mV
T6 construct: gene P2RX1; hP2X1 with residues 133-184 (hP2X1 numbering) replaced by the corresponding rP2X4 segment; Xenopus oocytes
Description: two-electrode voltage clamp, Xenopus oocytes on X1-BX4

X1-BX4 [3] = test system: T6, X1-BX4; format: cell-based, Homo sapiens; Rattus norvegicus; conditions: antagonist at EC90 of ATP; 5 min preincubation; ND96 with Ba2+, -60 mV
rP2X4 receptor [4] = biological target: T7, rP2X4 receptor (Rattus norvegicus, UniProt P51577, D138K/H140K/S136K/T139R/Y378A); format: cell-based; conditions: read-out: % of control at 1 μM
T7 construct: gene P2rx4; homotrimer; cRNA expressed in Xenopus laevis oocytes
T7 sequence (P51577 1-388 S136K/D138K/T139R/H140K/Y378A): T1 sequence (P51577 1-388 Y378A) with S136K, D138K, T139R, H140K

X1-CδX4 = test system: T8, X1-CδX4; format: cell-based, Homo sapiens; Rattus norvegicus; conditions: agonist; 3 s application; ND96 with Ba2+, -60 mV
T8 construct: gene P2RX1; hP2X1 with residues 216-220 replaced by the corresponding rP2X4 segment; Xenopus oocytes
Description: two-electrode voltage clamp, Xenopus oocytes on X1-CδX4

X1-CϵX4 = test system: T9, X1-CϵX4; format: cell-based, Homo sapiens; Rattus norvegicus; conditions: agonist; 3 s application; ND96 with Ba2+, -60 mV
T9 construct: gene P2RX1; hP2X1 with residues 221-226 replaced by the corresponding rP2X4 segment; Xenopus oocytes
Description: two-electrode voltage clamp, Xenopus oocytes on X1-CϵX4

X1-CβX4 = test system: T10, X1-CβX4; format: cell-based, Homo sapiens; Rattus norvegicus; conditions: agonist; 3 s application; ND96 with Ba2+, -60 mV
T10 construct: gene P2RX1; hP2X1 with residues 232-261 replaced by the corresponding rP2X4 segment; Xenopus oocytes
Description: two-electrode voltage clamp, Xenopus oocytes on X1-CβX4

X1-CζX4 = test system: T11, X1-CζX4; format: cell-based, Homo sapiens; Rattus norvegicus; conditions: agonist; 3 s application; ND96 with Ba2+, -60 mV
T11 construct: gene P2RX1; hP2X1 with residues 227-231 replaced by the corresponding rP2X4 segment; Xenopus oocytes
Description: two-electrode voltage clamp, Xenopus oocytes on X1-CζX4

X1-CαX4 = test system: T12, X1-CαX4; format: cell-based, Homo sapiens; Rattus norvegicus; conditions: agonist; 3 s application; ND96 with Ba2+, -60 mV
T12 construct: gene P2RX1; text says 184-209) replaced by the corresponding rP2X4 segment; Xenopus oocytes
Description: two-electrode voltage clamp, Xenopus oocytes on X1-CαX4

X1-BX4 [5] = test system: T6, X1-BX4; format: cell-based, Homo sapiens; Rattus norvegicus; conditions: agonist; 3 s application; ND96 with Ba2+, -60 mV
X1-CγX4 = test system: T13, X1-CγX4; format: cell-based, Homo sapiens; Rattus norvegicus; conditions: agonist; 3 s application; ND96 with Ba2+, -60 mV
T13 construct: gene P2RX1; hP2X1 with residues 210-215 replaced by the corresponding rP2X4 segment; Xenopus oocytes
Description: two-electrode voltage clamp, Xenopus oocytes on X1-CγX4

[6] = antagonist at EC90 of ATP, 5 min preincubation
[7] = read-out: ATP / pEC50 (converted)

Cc1ccc(C(=O)Nc2ccc(S(=O)(=O)O)c3cc(S(=O)(=O)O)cc(S(=O)(=O)O)c23)cc1NC(=O)c1cccc(NC(=O)Nc2cccc(C(=O)Nc3cc(C(=O)Nc4ccc(S(=O)(=O)O)c5cc(S(=O)(=O)O)cc(S(=O)(=O)O)c45)ccc3C)c2)c1 [Suramin]
IC50 (rP2X4 receptor [1]): > 100000 nM

Cc1nc(N=Nc2ccc(S(=O)(=O)O)cc2S(=O)(=O)O)c(COP(=O)(O)O)c(C=O)c1O [PPADS, pyridoxal-phosphate-6-azophenyl-2,4-disulfonate]
IC50 (hP2X1 receptor; read-out: PPADS / pIC50 (converted)): 1580 nM
PPADS / pIC50 (X1-AX4; [6]): 6.18 ± 0.02
PPADS / pIC50 (X1-DX4; [6]): 6.95 ± 0.07
IC50 (rP2X4 receptor [1]): > 100000 nM
PPADS / pIC50 (X1-CX4; [6]): 5.47 ± 0.12
PPADS / pIC50 (X1-BX4 [2]; [6]): 5.24 ± 0.12

O=C(Nc1cc(C(=O)Nc2ccc(S(=O)(=O)O)cc2S(=O)(=O)O)cc(C(=O)Nc2ccc(S(=O)(=O)O)cc2S(=O)(=O)O)c1)Nc1cc(C(=O)Nc2ccc(S(=O)(=O)O)cc2S(=O)(=O)O)cc(C(=O)Nc2ccc(S(=O)(=O)O)cc2S(=O)(=O)O)c1 [NF449, 4,4′,4″,4‴-(carbonylbis(imino-5,1,3-benzenetriylbis(carbonylimino)))tetrakisbenzene-1,3-disulfonic acid]
IC50 (rP2X4 receptor [1]): > 1000 nM
pIC50 (X1-BX4 [3]): 9.28 ± 0.05
remaining activity at 1 µM (rP2X4 receptor [4]): 104 ± 5.3%

Nc1ncnc2c1ncn2[C@@H]1O[C@H](COP(=O)(O)OP(=O)(O)OP(=O)(O)O)[C@@H](O)[C@H]1O [ATP]
EC50 (hP2X1 receptor; [7]): 490 nM
ATP / pEC50 (X1-CδX4): 5.21 ± 0.04
ATP / pEC50 (X1-AX4; agonist, 3 s application): 4.43 ± 0.08
ATP / pEC50 (X1-DX4; agonist, 3 s application): 5.08 ± 0.04
EC50 (rP2X4 receptor [1]; [7]): 4070 nM
ATP / pEC50 (X1-CϵX4): 5.68 ± 0.06
ATP / pEC50 (X1-CβX4): 5.30 ± 0.06
ATP / pEC50 (X1-CζX4): 5.54 ± 0.06
ATP / pEC50 (X1-CαX4): 5.34 ± 0.05
pEC50 (X1-BX4 [5]): 3.6 ± 0.1
ATP / pEC50 (X1-CX4; agonist, 3 s application): 6.17 ± 0.13
ATP / pEC50 (X1-CγX4): 5.71 ± 0.06
ATP / pEC50 (X1-BX4 [2]; agonist, 3 s application): 4.28 ± 0.04

Reference: article PMC4340402 (The Journal of Biological Chemistry, 2014)
